{
  "source": "patent US4221778A",
  "about": "“Prolonged release pharmaceutical preparations” (Pennwalt Corporation, priority 1979, dated 1980)",
  "origin": "cited, not measured here",
  "key": {"[1]": {"assay": "not given", "remark": "listed apart in the source"}, "[2]": {"assay": "not given", "remark": "listed apart in the source"}},
  "note": "Counter-ions that a name gives are not always drawn.",
  "data": [
    {"smiles": "COc1ccc2c(c1)[C@]13CCCC[C@@H]1[C@H](C2)N(C)CC3", "note": "[Dextromethorphan]", "values": [
      {"measurement": "effectiveness in patients with pathological cough", "setting": "pathological cough; compared with codeine", "result": "about the equal of codeine"},
      {"measurement": "analgesic or addictive properties", "setting": "pathological cough; human, in vivo", "result": "no analgesic or addictive properties"},
      {"measurement": "toxicity", "setting": "pathological cough; human, in vivo", "result": "quite low"},
      {"measurement": "drowsiness", "setting": "pathological cough; unlike codeine", "result": "rarely produces drowsiness"}
    ]},
    {"smiles": "CN[C@@H](C)[C@@H](O)c1ccccc1", "note": "[Pseudoephedrine]", "values": [
      {"measurement": "biological half life in man", "result": "5-7 hours"}
    ]},
    {"smiles": "CN[C@@H](C)[C@H](O)c1ccccc1", "note": "[Ephedrine]", "values": [
      {"measurement": "biological half life in man", "result": "about 6 hours"}
    ]},
    {"smiles": "CC(C)(N)Cc1ccccc1", "note": "[Phentermine hydrochloride]", "values": [
      {"measurement": "blood levels in humans", "setting": "[1]; hydrochloride salt, doses of 15 mg. and 30 mg.", "result": "rapid peak concentrations"}
    ]},
    {"smiles": "CC(N)C(O)c1ccccc1", "note": "(stereo not shown) [PPA, phenylpropanolamine]", "values": [
      {"measurement": "pKa", "setting": "[2]", "result": 9.4},
      {"measurement": "biological half life in man", "result": 3.9, "unit": "hours"}
    ]},
    {"smiles": "CC(C)(N)Cc1ccccc1", "note": "[Phentermine, phenyl-tertiary-butyl-amine]", "values": [
      {"measurement": "absorption from the gastrointestinal tract", "setting": "[1]; free form", "result": "rapidly absorbed"}
    ]}
  ]
}
